# Test results from US20070037835A1, “Pharmaceutical composition comprising a cathepsin s inhibitor and an opioid” (priority 2003, published 2007).
# Counter-ions that a name gives are not always drawn.
# Columns and labels:
# [1] = test system: established mechanical hyperalgesia; assay: Chronic neuropathic pain model (Seltzer, partial ligation of the sciatic nerve), paw withdrawal threshold; type: in vivo, Wistar rats; details: mean ± s.e.m.
# Source text: Hyperalgesia is examined in the model of neuropathic pain induced by partial ligation of the sciatic nerve as described by Seltzer et al. (1990). Briefly, Wistar rats (120-140 g) are anaesthetised, the left sciatic nerve exposed at mid-thigh level through a small incision and ⅓ to ½ of the nerve thickness tightly ligated within a 7.0 silk suture. The wound is closed with a single muscle suture and skin clips and dusted with Aureomycin antibiotic powder. The animals are allowed to recover and used 12-15 days following surgery. Mechanical hyperalgesia is assessed by measuring paw withdrawal thresholds to an increasing pressure stimulus placed onto the dorsal surface of the paw using an analgesy-meter (Ugo-Basile, Milan) with a cut-off of 250 g. Withdrawal thresholds are measured on both the ipsilateral (ligated) and contralateral (unligated) paw prior to (predose) and then up to 6 h following drug or vehicle administration. Data are expressed as withdrawal threshold (g) and percentage reversal of hyperalgesia calculated according to the following formula: [formula]
# Potency is expressed as D50 value, i.e. the dose of the single compound or a COMBINATION OF THE INVENTION necessary to produce 50% reversal of hyperalgesia.
# Paw withdrawal thresholds are measured prior to drug treatment (predose) and then at 0.5, 1, 3 and 6 hours following concomitant administration of morphine subcutaneously and the cathepsin inhibitor of formula II orally. Each time point represents data from 6 animals per group. Vehicle is 0.5% methylcellulose, 1 ml p.o./0.9% saline s.c. Statistical analysis is performed on raw data (paw withdrawal thresholds).
# Statistical significance, *† P<0.05 by Analysis of variance followed by Dunnett's test.
# [2] = test system: neuropathic rat nociceptive threshold; assay: Naloxone blockade of anti-hyperalgesic effect in neuropathic rats; type: in vivo
structure (smiles),measurement,setting,value
CC(C)(C)CCn1c(Cc2ccc(Cl)cc2)cc2cnc(C#N)nc21 [Inhibitor],% Reversal of Predose Hyperalgesia,"[1]; Inhibitor 10 mg/kg p.o., 0.5 h post-dose",30.3 ± 5.8%
same,% Reversal of Predose Hyperalgesia,"[1]; Inhibitor 10 mg/kg p.o., 1 h post-dose",22.8 ± 4.6%
same,% Reversal of Predose Hyperalgesia,"[1]; Inhibitor 30 mg/kg, 0.5 h post-dose",46.7 ± 11.4%
same,% Reversal of Predose Hyperalgesia,"[1]; Inhibitor 30 mg/kg, 1 h post-dose",54.7 ± 7.1%
"CN1CC[C@]23c4c5ccc(O)c4O[C@H]2[C@@H](O)C=C[C@H]3[C@H]1C5 [Morphine, morphine]",% Reversal of Predose Hyperalgesia,"[1]; Morphine 1 mg/kg s.c., 0.5 h post-dose",4.4 ± 2.8%
same,% Reversal of Predose Hyperalgesia,"[1]; Morphine 1 mg/kg s.c., 1 h post-dose",6.5 ± 2.9%
C=CCN1CC[C@]23c4c5ccc(O)c4O[C@H]2C(=O)CC[C@@]3(O)[C@H]1C5 [Naloxone hydrochloride],effect on neuropathic rat nociceptive threshold,"[2]; naloxone alone, 0.1 mg/kg",devoid of any effect
same,effect on the anti-hyperalgesic effect induced by the compound of formula II,"[2]; neuropathic rats, naloxone 0.1 mg/kg",blocks the anti-hyperalgesic effect
